Data taken from patent US8461152B2, “Arylcyclohexylethers of dihydrotetraazabenzoazulenes” (Hoffmann-La Roche Inc., priority 2008, dated 2013).
Structures can show the parent of a compound that is named as a salt.

Target: T1, human V1a receptor (Homo sapiens, UniProt P37288)
T1 construct: expressed in transfected cells; host or cells: HEK293 cells, transiently transfected; membrane preparation
Assay: human V1a receptor binding studies (SPA, 3H-Vasopressin, membranes of transfected HEK293 cells)
Conditions: displacement of 3H-Vasopressin, HEK293 cell membranes, 1 h at room temperature; Ki by Cheng-Prussoff equation; read-out: pKi (hV1a) (converted)
Description: The human V1a receptor was cloned by RT-PCR from total human liver RNA. The coding sequence was subcloned in an expression vector after sequencing to confirm the identity of the amplified sequence. […] Cell membranes were prepared from HEK293 cells transiently transfected with the expression vector and grown in 20 liter fermenters with the following protocol.
50 g of cells are resuspended in 30 ml freshly prepared ice cold Lysis buffer (50 mM HEPES, 1 mM EDTA, 10 mM magnesium dichloride adjusted to pH=7.4+complete cocktail of protease inhibitor (Roche Diagnostics)). Homogenized with Polytron for 1 min and sonicated on ice for 2×2 minutes at 80% intensity (Vibracell sonicator). The preparation is centrifuged 20 min at 500 g at 4° C., the pellet is discarded and the supernatant centrifuged 1 hour at 43'000 g at 4° C. (19'000 rpm). The pellet is resuspended in 12.5 ml Lysis buffer+12.5 ml Sucrose 20% and homogenized using a Polytron for 1-2 min. The protein concentration is determined by the Bradford method and aliquots are stored at −80° C. until use. For binding studies 60 mg Yttrium silicate SPA beads (Amersham) are mixed with an aliquot of membrane in binding buffer (50 mM Tris, 120 mM sodium chloride, 5 mM potassium chloride, 2 mM Calcium dichloride, 10 mM magnesium dichloride) for 15 minutes with mixing. 50 μl of bead/membrane mixture is then added to each well of a 96 well plate, followed by 50 μl of 4 nM 3H-Vasopressin (American Radiolabeled Chemicals). For total binding measurement 100 μl of binding buffer are added to the respective wells, for non-specific binding 100 μl of 8.4 mM cold vasopressin and for compound testing 100 μl of a serial dilution of each compound in 2% dimethyl sulfoxide. The plate is incubated 1 h at room temperature, centrifuged […] at 1000 g and counted on a Packard Top-Count. Non-specific binding counts are subtracted from each well and data is normalized to the maximum specific binding set at 100%. To calculate an IC 50 the curve is fitted using a non-linear regression model (XLfit) and the Ki is calculated using the Cheng-Prussoff equation.

T1 sequence (P37288 whole entry): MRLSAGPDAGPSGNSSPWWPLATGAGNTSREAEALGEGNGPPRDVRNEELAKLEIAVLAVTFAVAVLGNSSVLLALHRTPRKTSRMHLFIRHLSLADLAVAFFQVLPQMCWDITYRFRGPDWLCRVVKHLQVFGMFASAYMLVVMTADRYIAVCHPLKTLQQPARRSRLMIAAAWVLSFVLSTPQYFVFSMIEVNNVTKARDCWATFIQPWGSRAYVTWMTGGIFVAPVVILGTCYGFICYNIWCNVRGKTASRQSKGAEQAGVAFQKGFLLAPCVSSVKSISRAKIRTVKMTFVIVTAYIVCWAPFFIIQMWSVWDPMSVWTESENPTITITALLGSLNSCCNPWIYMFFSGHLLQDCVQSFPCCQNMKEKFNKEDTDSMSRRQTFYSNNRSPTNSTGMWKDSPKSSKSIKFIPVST

Row | SMILES | Ki
1 | Cc1cccc(O[C@H]2CC[C@H](c3nnc4n3-c3ccc(Cl)cc3CN(C)C4)CC2)c1 [Example 37, trans-8-Chloro-5-methyl-1-(4-m-tolyloxy-cyclohexyl)-5,6-dihydro-4H-2,3,5,10b-tetraaza-benzo[e]azulene] | 1.7 nM
2 | CC(C)(C)OC(=O)N1Cc2cc(Cl)ccc2-n2c(nnc2[C@H]2CC[C@H](Oc3cccc(C(C)(C)C)c3)CC2)C1 [Example 38, trans-1-[4-(3-tert-Butyl-phenoxy)-cyclohexyl]-8-chloro-4H,6H-2,3,5,10b-tetraaza-benzo[e]azulene-5-carboxylic acid tert-butyl ester] | 18.2 nM
3 | CC(C)(C)OC(=O)N1Cc2cc(Cl)ccc2-n2c(nnc2[C@H]2CC[C@H](Oc3ccccc3F)CC2)C1 [Example 43, trans-8-Chloro-1-[4-(2-fluoro-phenoxy)-cyclohexyl]-4H,6H-2,3,5,10b-tetraaza-benzo[e]azulene-5-carboxylic acid tert-butyl ester] | 6.17 nM
4 | Fc1ccccc1O[C@H]1CC[C@H](c2nnc3n2-c2ccc(Cl)cc2CNC3)CC1 [Example 44, trans-8-Chloro-1-[4-(2-fluoro-phenoxy)-cyclohexyl]-5,6-dihydro-4H-2,3,5,10b-tetraaza-benzo[e]azulene hydrochloride] | 3.39 nM
5 | CN1Cc2cc(Cl)ccc2-n2c(nnc2[C@H]2CC[C@H](Oc3ccccc3F)CC2)C1 [Example 45, trans-8-Chloro-1-[4-(2-fluoro-phenoxy)-cyclohexyl]-5-methyl-5,6-dihydro-4H-2,3,5,10b-tetraaza-benzo[e]azulene] | 3.63 nM
6 | CC(C)(C)OC(=O)N1Cc2cc(Cl)ccc2-n2c(nnc2[C@H]2CC[C@H](Oc3ccccc3C#N)CC2)C1 [Example 46, trans-8-Chloro-1-[4-(2-cyano-phenoxy)-cyclohexyl]-4H,6H-2,3,5,10b-tetraaza-benzoazulene-5-carboxylic acid tert-butyl ester] | 2.88 nM
7 | N#Cc1ccccc1O[C@H]1CC[C@H](c2nnc3n2-c2ccc(Cl)cc2CNC3)CC1 [Example 47, trans-2-[4-(8-Chloro-5,6-dihydro-4H-2,3,5,10b-tetraaza-benzo[e]azulen-1-yl)-cyclohexyloxy]-benzonitrile hydrochloride] | 1.2 nM
8 | CN1Cc2cc(Cl)ccc2-n2c(nnc2[C@H]2CC[C@H](Oc3ccccc3C#N)CC2)C1 [Example 48, trans-2-[4-(8-Chloro-5-methyl-5,6-dihydro-4H-2,3,5,10b-tetraaza-benzoazulen-1-yl)-cyclohexyloxy]-benzonitrile] | 0.794 nM
9 | Cc1ccccc1O[C@H]1CC[C@H](c2nnc3n2-c2ccc(Cl)cc2CN(C(=O)OC(C)(C)C)C3)CC1 [Example 49, trans-8-Chloro-1-(4-o-tolyloxy-cyclohexyl)-4H,6H-2,3,5,10b-tetraaza-benzoazulene-5-carboxylic acid tert-butyl ester] | 7.08 nM
10 | Cc1ccccc1O[C@H]1CC[C@H](c2nnc3n2-c2ccc(Cl)cc2CN(C)C3)CC1 [Example 51, trans-8-Chloro-5-methyl-1-(4-o-tolyloxy-cyclohexyl)-5,6-dihydro-4H-2,3,5,10b-tetraaza-benzoazulene] | 3.72 nM
11 | CC(C)(C)OC(=O)N1Cc2cc(Cl)ccc2-n2c(nnc2[C@H]2CC[C@H](Oc3cc(F)cc(F)c3)CC2)C1 [Example 52, trans-8-Chloro-1-[4-(3,5-difluoro-phenoxy)-cyclohexyl]-4H,6H-2,3,5,10b-tetraaza-benzoazulene-5-carboxylic acid tert-butyl ester] | 3.47 nM
12 | CN1Cc2cc(Cl)ccc2-n2c(nnc2[C@H]2CC[C@H](Oc3cc(F)cc(F)c3)CC2)C1 [Example 54, trans-8-Chloro-1-[4-(3,5-difluoro-phenoxy)-cyclohexyl]-5-methyl-5,6-dihydro-4H-2,3,5,10b-tetraaza-benzoazulene] | 3.89 nM
13 | CC(C)(C)OC(=O)N1Cc2cc(Cl)ccc2-n2c(nnc2[C@H]2CC[C@H](Oc3ccc4ccccc4c3)CC2)C1 [Example 55, trans-8-Chloro-1-[4-(naphthalen-2-yloxy)-cyclohexyl]-4H,6H-2,3,5,10b-tetraaza-benzoazulene-5-carboxylic acid tert-butyl ester] | 9.33 nM
14 | CN1Cc2cc(Cl)ccc2-n2c(nnc2[C@H]2CC[C@H](Oc3ccc4ccccc4c3)CC2)C1 [Example 57, trans-8-Chloro-5-methyl-1-[4-(naphthalen-2-yloxy)-cyclohexyl]-5,6-dihydro-4H-2,3,5,10b-tetraaza-benzoazulene] | 5.75 nM
15 | CC(C)(C)OC(=O)N1Cc2cc(Cl)ccc2-n2c(nnc2[C@H]2CC[C@H](Oc3cccnc3)CC2)C1 [Example 61, trans-8-Chloro-1-[4-(pyridin-3-yloxy)-cyclohexyl]-4H,6H-2,3,5,10b-tetraaza-benzoazulene-5-carboxylic acid tert-butyl ester] | 1.51 nM
16 | CN1Cc2cc(Cl)ccc2-n2c(nnc2[C@H]2CC[C@H](Oc3cccnc3)CC2)C1 [Example 63, trans-8-Chloro-5-methyl-1-[4-(pyridin-3-yloxy)-cyclohexyl]-5,6-dihydro-4H-2,3,5,10b-tetraaza-benzoazulene] | 4.57 nM
17 | CC(C)(C)OC(=O)N1Cc2cc(Cl)ccc2-n2c(nnc2[C@H]2CC[C@H](Oc3cncc(Cl)c3)CC2)C1 [Example 64, trans-8-Chloro-1-[4-(5-chloro-pyridin-3-yloxy)-cyclohexyl]-4H,6H-2,3,5,10b-tetraaza-benzoazulene-5-carboxylic acid tert-butyl ester] | 9.55 nM
18 | CN1Cc2cc(Cl)ccc2-n2c(nnc2[C@H]2CC[C@H](Oc3cncc(Cl)c3)CC2)C1 [Example 66, trans-8-Chloro-1-[4-(5-chloro-pyridin-3-yloxy)-cyclohexyl]-5-methyl-5,6-dihydro-4H-2,3,5,10b-tetraaza-benzoazulene] | 9.12 nM
19 | CC(C)(C)OC(=O)N1Cc2cc(Cl)ccc2-n2c(nnc2[C@H]2CC[C@H](Oc3ccccn3)CC2)C1 [Example 67, trans-8-Chloro-1-[4-(pyridin-2-yloxy)-cyclohexyl]-4H,6H-2,3,5,10b-tetraaza-benzoazulene-5-carboxylic acid tert-butyl ester] | 3.31 nM
20 | Clc1ccc2c(c1)CNCc1nnc([C@H]3CC[C@H](Oc4ccccn4)CC3)n1-2 [Example 68, trans-8-Chloro-1-[4-(pyridin-2-yloxy)-cyclohexyl]-5,6-dihydro-4H-2,3,5,10b-tetraaza-benzoazulene hydrochloride] | 6.17 nM
21 | CN1Cc2cc(Cl)ccc2-n2c(nnc2[C@H]2CC[C@H](Oc3ccccn3)CC2)C1 [Example 69, trans-8-Chloro-5-methyl-1-[4-(pyridin-2-yloxy)-cyclohexyl]-5,6-dihydro-4H-2,3,5,10b-tetraaza-benzoazulene] | 1.1 nM
22 | CC(C)(C)OC(=O)N1Cc2cc(Cl)ccc2-n2c(nnc2[C@H]2CC[C@H](Oc3cccc(Cl)n3)CC2)C1 [Example 70, trans-8-Chloro-1-[4-(6-chloro-pyridin-2-yloxy)-cyclohexyl]-4H,6H-2,3,5,10b-tetraaza-benzo[e]azulene-5-carboxylic acid tert-butyl ester] | 9.12 nM
23 | CN1Cc2cc(Cl)ccc2-n2c(nnc2[C@H]2CC[C@H](Oc3cccc(Cl)n3)CC2)C1 [Example 72, trans-8-Chloro-1-[4-(6-chloro-pyridin-2-yloxy)-cyclohexyl]-5-methyl-5,6-dihydro-4H-2,3,5,10b-tetraaza-benzo[e]azulene] | 2.4 nM
24 | Clc1ccc(O[C@H]2CC[C@H](c3nnc4n3-c3ccc(Cl)cc3CNC4)CC2)nc1 [Example 74, trans-8-Chloro-1-[4-(5-chloro-pyridin-2-yloxy)-cyclohexyl]-5,6-dihydro-4H-2,3,5,10b-tetraaza-benzo[e]azulene hydrochloride] | 11.2 nM
25 | CN1Cc2cc(Cl)ccc2-n2c(nnc2[C@H]2CC[C@H](Oc3ccc(Cl)cn3)CC2)C1 [Example 75, trans-8-Chloro-1-[4-(5-chloro-pyridin-2-yloxy)-cyclohexyl]-5-methyl-5,6-dihydro-4H-2,3,5,10b-tetraaza-benzo[e]azulene] | 2.82 nM
26 | CC(C)(C)OC(=O)N1Cc2cc(Cl)ccc2-n2c(nnc2[C@H]2CC[C@H](Oc3ncccn3)CC2)C1 [Example 79, trans-8-Chloro-1-[4-(pyrimidin-2-yloxy)-cyclohexyl]-4H,6H-2,3,5,10b-tetraaza-benzo[e]azulene-5-carboxylic acid tert-butyl ester] | 2.57 nM
27 | CC(C)(C)OC(=O)N1Cc2cc(Cl)ccc2-n2c(nnc2[C@H]2CC[C@@H](Oc3ncccn3)CC2)C1 [Example 80, cis-8-Chloro-1-[4-(pyrimidin-2-yloxy)-cyclohexyl]-4H,6H-2,3,5,10b-tetraaza-benzo[e]azulene-5-carboxylic acid tert-butyl ester] | 12.6 nM
